# According to US12329158B2, “Large-scale methods of uniformly coating packaging surfaces with a volatile antimicrobial to preserve food freshness” (AGROFRESH INC., priority 2013, dated 2025):
# Tests used:
# Botrytis cinerea [1] = test: Volatile release from different materials, MIC (Example 13); format: cell-based
# Experimental: An in vitro assay is used to evaluate the ability of Compound A to volatilize from different materials and control fungal growth. […] A 3-mL volume of full-strength Potato Dextrose Agar (PDA) is added to each well. […] Plates are inoculated immediately prior to volatile fungicide treatment. The various materials are placed, in duplicate, on the underside of a polyethylene PCR plate sealing film. […] The acetone is permitted to evaporate for five minutes. The headspace around the Botrytis cinerea inoculum is then sealed inside the well by the film with the adhering disk of material containing the fungicide. Plates are inverted, placed over the treated disks and sealed to prevent any of the chemical from flaking from the disk and falling onto the inoculated agar. After three days of storage at 23° C., the cultures are evaluated for percent growth relative to control based on measurement of fungal colony diameter.
# Botrytis cinerea [2] = test: Gray mold on strawberry, volatile assay (Example 23); format: in vivo
# Experimental: Eight strawberries (per repetition, in triplicate) are placed in an industry standard 1-lb PET clamshell with the stem-end facing down.
# Compound A is mixed acetone and 250 μL of the mixture is pipetted into a small glass tube. […] After incubation, fruits are evaluated for disease (scale 0 to 4, with ≤1 indicating marketable fruit and 4 indicating ≥50% of fruit surface covered by pathogen) up to 4 days at 21° C.
# Trichophyton rubrum = test: In vitro volatile assay (Example 26); format: cell-based; conditions: Trichophyton rubrum, 120 h, 5 days at 28 C, 100% control, read-out: MIC (mg/L) Trichophyton rubrum
# Experimental: (§1) Volatile assay: 6-well (16.5 mL volume per well) microtiter plates are used in an in vitro inhibition assay for Compounds A and 31, and compared to other registered fungicides (5-fluorocytosine, Amphotericin B, aspofungin diacetate, Fluconazole and Itraconazole). A 7.5-mL volume of half strength PDA is added to each well. After drying, a mycelial plug (5 mm diameter) is aseptically obtained from actively growing cultures of Epidermophyton floccus, Trichophyton rubrum, or Trichophyton mentagrophytes and placed at the center of the plate with the mycelial side in contact with the agar. A Whatman #1 filter disk (Cat. No. 1001-325) is placed, in duplicate, on the underside of a polyethylene PCR plate sealing film. […] The headspace around the inoculum is then sealed inside the well by the film with the adhering disk containing the fungicide and incubated inverted for 5 days at 28° C.
# [3] = test system: Trichophyton mentagrophytes; test: In vitro volatile assay (Example 26); format: cell-based; conditions: Trichophyton mentagrophytes, 120 h, 5 days at 28 C, 100% control, read-out: MIC (mg/L) Trichophyton mentagrophytes
# Experimental: as §1
# Epidermophyton floccus = test: In vitro volatile assay (Example 26); format: cell-based; conditions: Epidermophyton, 120 h, 5 days at 28 C, 100% control, read-out: MIC (mg/L) Epidermophyton floccus
# Experimental: as §1
# Escherichia coli = test: In vitro volatile inhibition assay against bacteria (Example 8); format: cell-based; set-up: key: 0 = No colonies; 1 = Micro colonies not connected; 2 = Small colonies with some merging; 3 = Large colonies merging together; conditions: 5.00 mg per disk
# Experimental: For testing activity against bacteria pathogens, 12-Well (7 mL volume per well) microtiter plates are used for the in vitro inhibition assay for volatile antimicrobial compounds. A 3-mL volume of full-strength LB Agar is added to each well. After cooling, 15 μL of Escherichia coli, adjusted to an optical density of 0.02 to 0.035, and further diluted 1/10 is pipetted to the center of the agar and tilted to distribute uniformly. Small Whatman #1 filter disks (Cat. No. 1001-0155) are placed, in duplicate, on the underside of a polyethylene polymerase chain reaction (PCR) plate sealing film. For determination of the minimum inhibitory concentration (MIC), Compound A is diluted in acetone, and 5 mg of compound is added to the disks. The acetone is permitted to evaporate for 5 minutes. The headspace around the Escherichia coli inoculum is then sealed inside the well by the film with the adhering disk containing the fungicide. Plates are inverted, placed over the treated disks and sealed to prevent any of the chemical from flaking from the disk and falling onto the inoculated agar. After 3 days of storage at 4° C., cultures are transferred to 23° C. for an additional 2 days, and then evaluated for colony growth relative to control.
# Penicillium expansum = test: Blue mold on apple, contact assay; format: in vivo
# Experimental: Contact Assay: […] A 250 mL solution of each concentration is used to dip two inoculated apples, one minute per apple, performed in triplicate per rate. The dipped fruits are then placed back into the […] are then placed in a secondary container and incubated at 1° C. for 5 days. After incubation, fruits are evaluated for diameter (mm) of rot development (browning) up to 7 days at 21° C.
smiles,measurement,setting,value
"OB1OCc2cc(F)ccc21 [Compound A, 5-fluoro-1,3-dihydro-1-hydroxy-2,1-benzoxaborole]",MIC,Botrytis cinerea [1]; volatile release from Acrylic-Coated Fiberglass,0.56 µg/mL
same,MIC,Botrytis cinerea [1]; volatile release from Aramid,2.2 µg/mL
same,MIC,Botrytis cinerea [1]; volatile release from Aramid and Fiberglass,0.56 µg/mL
same,MIC,Botrytis cinerea [1]; volatile release from Cardboard,2.2 µg/mL
same,MIC,Botrytis cinerea [1]; volatile release from Cellulose,0.56 µg/mL
same,MIC,Botrytis cinerea [1]; volatile release from Fiberglass,0.56 µg/mL
same,MIC,Botrytis cinerea [1]; volatile release from PTFE,1.1 µg/mL
same,MIC,Botrytis cinerea [1]; volatile release from PTFE-Coated Fiberglass,0.56 µg/mL
same,MIC,Botrytis cinerea [1]; volatile release from Polyethylene PCR Film,0.28 µg/mL
same,MIC,Botrytis cinerea [1]; volatile release from Silica,0.56 µg/mL
same,MIC,Botrytis cinerea [1]; volatile release from Silicone-Coated Fiberglass,0.56 µg/mL
same,MIC,Botrytis cinerea [1]; volatile release from Vinyl-Coated Polyester,0.56 µg/mL
same,Disease Severity (0 to 4),"Botrytis cinerea [2]; 0.02 mg/L, Day 0",0.0
same,Disease Severity (0 to 4),"Botrytis cinerea [2]; 0.02 mg/L, Day 1",0.0
same,Disease Severity (0 to 4),"Botrytis cinerea [2]; 0.02 mg/L, Day 2",0.1
same,Disease Severity (0 to 4),"Botrytis cinerea [2]; 0.02 mg/L, Day 3",0.2
same,Disease Severity (0 to 4),"Botrytis cinerea [2]; 0.02 mg/L, Day 4",0.7
same,Disease Severity (0 to 4),"Botrytis cinerea [2]; 0.1 mg/L, Day 0",0.0
same,Disease Severity (0 to 4),"Botrytis cinerea [2]; 0.1 mg/L, Day 1",0.0
same,Disease Severity (0 to 4),"Botrytis cinerea [2]; 0.1 mg/L, Day 2",0.0
same,Disease Severity (0 to 4),"Botrytis cinerea [2]; 0.1 mg/L, Day 3",0.0
same,Disease Severity (0 to 4),"Botrytis cinerea [2]; 0.1 mg/L, Day 4",0.0
same,Disease Severity (0 to 4),"Botrytis cinerea [2]; 0.5 mg/L, Day 0",0.0
same,Disease Severity (0 to 4),"Botrytis cinerea [2]; 0.5 mg/L, Day 1",0.0
same,Disease Severity (0 to 4),"Botrytis cinerea [2]; 0.5 mg/L, Day 2",0.0
same,Disease Severity (0 to 4),"Botrytis cinerea [2]; 0.5 mg/L, Day 3",0.0
same,Disease Severity (0 to 4),"Botrytis cinerea [2]; 0.5 mg/L, Day 4",0.0
same,Disease Severity (0 to 4),"Botrytis cinerea [2]; 2.5 mg/L, Day 0",0.0
same,Disease Severity (0 to 4),"Botrytis cinerea [2]; 2.5 mg/L, Day 1",0.0
same,Disease Severity (0 to 4),"Botrytis cinerea [2]; 2.5 mg/L, Day 2",0.0
same,Disease Severity (0 to 4),"Botrytis cinerea [2]; 2.5 mg/L, Day 3",0.0
same,Disease Severity (0 to 4),"Botrytis cinerea [2]; 2.5 mg/L, Day 4",0.0
same,MIC,Trichophyton rubrum,2 mg/L
same,MIC,[3],2 mg/L
same,MIC,Epidermophyton floccus,2 mg/L
same,Colony Rating,Escherichia coli,1
same,Browning Rot (diameter; mm),"Penicillium expansum; 2 mg/L, Day 0",0.0 mm
same,Browning Rot (diameter; mm),"Penicillium expansum; 2 mg/L, Day 2",3.7 mm
same,Browning Rot (diameter; mm),"Penicillium expansum; 2 mg/L, Day 4",15.5 mm
same,Browning Rot (diameter; mm),"Penicillium expansum; 2 mg/L, Day 7",23.3 mm
same,Browning Rot (diameter; mm),"Penicillium expansum; 10 mg/L, Day 0",0.0 mm
same,Browning Rot (diameter; mm),"Penicillium expansum; 10 mg/L, Day 2",2.2 mm
same,Browning Rot (diameter; mm),"Penicillium expansum; 10 mg/L, Day 4",8.0 mm
same,Browning Rot (diameter; mm),"Penicillium expansum; 10 mg/L, Day 7",20.2 mm
same,Browning Rot (diameter; mm),"Penicillium expansum; 50 mg/L, Day 0",0.0 mm
same,Browning Rot (diameter; mm),"Penicillium expansum; 50 mg/L, Day 2",0.7 mm
same,Browning Rot (diameter; mm),"Penicillium expansum; 50 mg/L, Day 4",5.7 mm
same,Browning Rot (diameter; mm),"Penicillium expansum; 50 mg/L, Day 7",15.0 mm
same,Browning Rot (diameter; mm),"Penicillium expansum; 250 mg/L, Day 0",0.0 mm
same,Browning Rot (diameter; mm),"Penicillium expansum; 250 mg/L, Day 2",0.0 mm
same,Browning Rot (diameter; mm),"Penicillium expansum; 250 mg/L, Day 4",4.3 mm
same,Browning Rot (diameter; mm),"Penicillium expansum; 250 mg/L, Day 7",11.8 mm
